From article PMC10257182, “Discovery of senolytics using machine learning” (Nature Communications, 2023)
pIC50: −log10 of the molar value. Several values for one entry are separate records, joined by “and”; a condition that tells them apart may be missing. Equal values may be shown once.

How the values were obtained:
Assay type in all cases: cell-based, human
[1] = tested on: senescent A549 cells (etoposide-induced); assay: Nuclei count senolytic assay, therapy-induced senescence (TIS) model, senescent cells; details: for pIC50: TIS model, etoposide-induced senescent A549, nuclei count, 72 h; for concentration at which a senolytic effect was reached: TIS A549, Hoechst labelling, marginal effect on normal cells; for senolytic action (in words): experimental screen, TIS senescent A549; for % Cell Survival: senescence cells, single replicate
In short: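 Nuclei counting by high-content imaging after 72 h compound treatment of senescent (etoposide-induced) versus control A549 cells. Top dose 10 μM final, lowest 10 nM.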

[2] = tested on: Na+/K+ ATPase pump (intracellular K+) in IMR90 cells at passage 27; assay: Intracellular K+ determination with Asante staining, replicative senescence; details: for Asante Mean intensity / Asante Mean intensity, group mean (Test details, Mean 2): Replicative Senescence cells; for Asante Mean intensity: individual replicate values; for Asante Mean intensity, group mean (Test details, Mean 2): mean of n=6
Protocol: Cells were cultured for control and senescent phenotype and then treated with the senolytics oleandrin, ouabain and periplocin at 10 nM for 72 h. Asante (Asante Potassium Green-2 AM, abcam ab142806) was added to the culture 30 min before fixation, following manufacturer instructions. DAPI staining was done before image acquisition on Nikon TI2 microscope (20x). Image analysis was performed using ImageJ 1.53k for setting intensity threshold and measuring mean intensity.

[3] = tested on: NOXA mRNA in senescent IMR90 ER:RAS cells; assay: NOXA mRNA expression by RT-qPCR, OIS; details: for NOXA mRNA expression: relative to ER:STOP DMSO = 1, individual replicate values
Protocol: Total RNA was isolated using RNAeasy kit (Quiagen). cDNA was generated with reverse transcriptase iScript (Bio-Rad). RT-qPCR was performed using SYBR Select Master Mix (Applied Biosystems) in OneStepPlus detection system (Applied Biosystems). Oligos for amplification were: NOXA Fw-[…] and Rv-[…]; b-ACTIN Fw-[…] and Rv-[…]; IL1a Fw-[…] and Rv- […]; IL1b Fw-[…] and Rv- […]; IL8 Fw-[…] and Rv-[…]; p16 Fw-CGGTCGGAGGCCGATCCAG and Rv- […]; p21Fw-[…] and Rv- […].

SMILES | concentration at which a senolytic effect was reached [1] | senolytic action (in words) [1] | % Cell Survival ([1]; log (dose) [M] -5) | % Cell Survival ([1]; log (dose) [M] -5.33) | % Cell Survival ([1]; log (dose) [M] -5.66) | % Cell Survival ([1]; log (dose) [M] -6) | % Cell Survival ([1]; log (dose) [M] -6.33) | % Cell Survival ([1]; log (dose) [M] -6.66) | % Cell Survival ([1]; log (dose) [M] -7) | % Cell Survival ([1]; log (dose) [M] -7.33) | % Cell Survival ([1]; log (dose) [M] -7.66) | % Cell Survival ([1]; log (dose) [M] -8) | Asante Mean intensity [2] | Asante Mean intensity, group mean (Test details, Mean 2) [2] | NOXA mRNA expression ([3]; ER:RAS cells, 10 nM) | other results
CO[C@H]1C[C@H](O[C@H]2CC[C@@]3(C)[C@H](CC[C@@H]4[C@@H]3CC[C@]3(C)[C@@H](C5=CC(=O)OC5)[C@@H](OC(C)=O)C[C@]43O)C2)O[C@@H](C)[C@@H]1O [Oleandrin, oleandrin] | 10 nM | strong senolytic action | 1.111% and 0.1906% and 0.9453% | 1.898% and 1.858% and 0.9453% | 1.065% and 1.477% and 0.6965% | 2.222% and 1.477% and 1.393% | 1.806% and 1.286% and 1.045% | 2.083% and 3.383% and 1.095% | 3.194% and 5.908% and 1.443% | 3.7037% and 20.1525% and 3.632% | 6.2037% and 0.09528% and 3.8806% | 34.3519% and 21.3435% and 24.6766% | 145.1 and 146.6 and 146 and 145.5 and 145.6 | 145.7 | 43.71 and 48.67 and 52.89 and 50.91 | viability at 10 µM ([1]; Homo sapiens, A549, log (dose) [M] -5, Senescent cells, mean, read-out: Mean % Cell Survival): 0.749%; viability at 4.68 µM ([1]; Homo sapiens, A549, log (dose) [M] -5.33, Senescent cells, mean, read-out: Mean % Cell Survival): 1.57%; viability at 2.19 µM ([1]; Homo sapiens, A549, log (dose) [M] -5.66, Senescent cells, mean, read-out: Mean % Cell Survival): 1.08%; viability at 1 µM ([1]; Homo sapiens, A549, log (dose) [M] -6, Senescent cells, mean, read-out: Mean % Cell Survival): 1.7%; viability at 0.468 µM ([1]; Homo sapiens, A549, log (dose) [M] -6.33, Senescent cells, mean, read-out: Mean % Cell Survival): 1.38%; viability at 0.219 µM ([1]; Homo sapiens, A549, log (dose) [M] -6.66, Senescent cells, mean, read-out: Mean % Cell Survival): 2.19%; viability at 0.1 µM ([1]; Homo sapiens, A549, log (dose) [M] -7, Senescent cells, mean, read-out: Mean % Cell Survival): 3.51%; viability at 0.0468 µM ([1]; Homo sapiens, A549, log (dose) [M] -7.33, Senescent cells, mean, read-out: Mean % Cell Survival): 9.16%; viability at 0.0219 µM ([1]; Homo sapiens, A549, log (dose) [M] -7.66, Senescent cells, mean, read-out: Mean % Cell Survival): 3.39%; viability at 0.01 µM ([1]; Homo sapiens, A549, log (dose) [M] -8, Senescent cells, mean, read-out: Mean % Cell Survival): 26.8%; pIC50 ([1]; Homo sapiens): 8.27; K+ intracellular concentration, in words ([2]; replicative senescence IMR90, 10 nM, 72 h): significantly reduced; NOXA mRNA expression, group mean (Test details, Mean 2) ([3]; ER:RAS cells, 10 nM, mean of n=4): 49.05; NOXA mRNA expression, in words ([3]; OIS IMR90 ER:RAS, 10 nM (Fig. 5c)): significant increase
C[C@@H]1O[C@@H](O[C@H]2C[C@@H](O)[C@]3(CO)[C@H]4[C@H](O)C[C@]5(C)[C@@H](C6=CC(=O)OC6)CC[C@]5(O)[C@@H]4CC[C@]3(O)C2)[C@H](O)[C@H](O)[C@H]1O [Ouabain, ouabain, reference compound] | – | – | – | – | – | – | – | – | – | – | – | – | 151.8 and 154.5 and 152.7 and 153 and 150.8 and 153.1 | 152.7 | 4.99 and 3.07 and 6.94 and 6.96 | –
CO[C@H]1C[C@H](O[C@H]2CC[C@]3(C)[C@H]4CC[C@]5(C)[C@@H](C6=CC(=O)OC6)CC[C@]5(O)[C@@H]4CC[C@]3(O)C2)O[C@H](C)[C@H]1O[C@@H]1O[C@H](CO)[C@@H](O)[C@H](O)[C@H]1O [Periplocin, periplocin] | 46.4 nM | strong senolytic action | 2.664% and 2.743% and 2.561% | 2.7192% and 5.421% and 2.241% | 2.83% and 4.507% and 2.945% | 6.937% and 6.9889% and 5.506% | 13.0411% and 10.516% and 9.859% | 19.7003% and 13.9125% and 17.7977% | 35.4051% and 33.1809% and 34.5711% | 65.3163% and 61.2671% and 61.2036% | 88.7902% and 97.518% and 96.799% | 101.831% and 100.523% and 94.4942% | 152.4 and 152.1 and 153.1 and 152.9 and 152.7 | 152.6 | 6.84 and 6.41 and 10.09 and 3.28 | pIC50 [1]: 7.14; Mean % Cell Survival ([1]; log (dose) [M] -5, Senescent cells, mean): 2.656%; Mean % Cell Survival ([1]; log (dose) [M] -5.33, Senescent cells, mean): 3.4604%; Mean % Cell Survival ([1]; log (dose) [M] -5.66, Senescent cells, mean): 3.427%; Mean % Cell Survival ([1]; log (dose) [M] -6, Senescent cells, mean): 6.477%; Mean % Cell Survival ([1]; log (dose) [M] -6.33, Senescent cells, mean): 11.1387%; Mean % Cell Survival ([1]; log (dose) [M] -6.66, Senescent cells, mean): 17.1368%; Mean % Cell Survival ([1]; log (dose) [M] -7, Senescent cells, mean): 34.3857%; Mean % Cell Survival ([1]; log (dose) [M] -7.33, Senescent cells, mean): 62.5957%; Mean % Cell Survival ([1]; log (dose) [M] -7.66, Senescent cells, mean): 94.3691%; Mean % Cell Survival ([1]; log (dose) [M] -8, Senescent cells, mean): 98.9494%
